The compounds below were run against T1, ER (Homo sapiens, UniProt P03372) (assay: ER degradation activity, in-cell western blot analysis in T47D cells). Conditions: 16 hours, Table A does not say which cell line (T47D or MCF7), read-out: Potency (DC50).
T1 construct: host or cells: T47D and MCF7 human breast cancer cells
T1 sequence (P03372 1-595): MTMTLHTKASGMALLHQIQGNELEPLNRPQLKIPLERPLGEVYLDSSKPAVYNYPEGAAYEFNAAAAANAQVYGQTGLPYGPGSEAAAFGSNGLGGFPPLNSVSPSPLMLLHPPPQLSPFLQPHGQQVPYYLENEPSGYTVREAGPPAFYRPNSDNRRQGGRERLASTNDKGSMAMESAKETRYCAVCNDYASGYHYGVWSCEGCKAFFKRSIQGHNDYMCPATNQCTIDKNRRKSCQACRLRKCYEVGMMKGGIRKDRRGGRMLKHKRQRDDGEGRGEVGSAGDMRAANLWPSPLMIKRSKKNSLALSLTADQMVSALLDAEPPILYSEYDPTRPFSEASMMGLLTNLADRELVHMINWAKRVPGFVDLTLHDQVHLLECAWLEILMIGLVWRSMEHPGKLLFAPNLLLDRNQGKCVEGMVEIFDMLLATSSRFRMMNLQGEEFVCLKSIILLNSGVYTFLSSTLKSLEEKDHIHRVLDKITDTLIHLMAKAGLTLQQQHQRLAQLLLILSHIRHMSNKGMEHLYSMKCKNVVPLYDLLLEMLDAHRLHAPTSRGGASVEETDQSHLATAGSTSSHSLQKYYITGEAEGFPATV
Assay type: cell-based
Procedure, shortened: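 T47D cells cultured in DMEM with 10% FBS, treated with compounds (final 0.5% DMSO) for 16 h. ER level measured by in-cell western with anti-rabbit-680/anti-mouse-800 near-infrared detection. Relative ER percentage calculated against untreated and DMSO-treated wells set as 100%.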

SMILES	DC50 [µM]
C[C@@H]1Cc2c([nH]c3ccccc23)[C@@H](c2c(F)cc(N3CCC(C(=O)N4CCC(CN5Cc6cc7c(cc6C5)C(=O)N(C5CCC(=O)NC5=O)C7=O)CC4)CC3)cc2F)N1CC(F)F (stereo partly drawn) [E 113, 6-((1-(1-(4-((1R,3R)-2-(2,2-difluoroethyl)-3-methyl-2,3,4,9-tetrahydro-1H-pyrido[3,4-b]indol-1-yl)-3,5-difluorophenyl)piperidine-4-carbonyl)piperidin-4-yl)methyl)-2-(2,6-dioxopiperidin-3-yl)-6,7-dihydropyrrolo[3,4-f]isoindole-1,3(2H,5H)-dione]	0.01 to 0.1
O=C1CCC(N2C(=O)c3cc4c(cc3C2=O)CN(CC(=O)N2CCC3(CC2)CCN(c2ccc([C@@H]5c6ccc(O)cc6CC[C@@H]5c5ccccc5)cc2)C3)C4)C(=O)N1 (mixture of isomers) [E 139, Rac-2-(2,6-dioxopiperidin-3-yl)-6-(2-(2-(4-((1R,2S)-6-hydroxy-2-phenyl-1,2,3,4-tetrahydronaphthalen-1-yl)phenyl)-2,8-diazaspiro[4.5]decan-8-yl)-2-oxoethyl)-6,7-dihydropyrrolo[3,4-f]isoindole-1,3(2H,5H)-dione]	0.01 to 0.1
C[C@@H]1Cc2c([nH]c3ccccc23)[C@@H](c2ccc(N3CCC4(CCN(C(=O)CN5Cc6cc7c(cc6C5)C(=O)N(C5CCC(=O)NC5=O)C7=O)CC4)CC3)cc2)N1CC(F)F (stereo partly drawn) [E 265, 6-(2-(9-(4-((1R,3R)-2-(2,2-difluoroethyl)-3-methyl-2,3,4,9-tetrahydro-1H-pyrido[3,4-b]indol-1-yl)phenyl)-3,9-diazaspiro[5.5]undecan-3-yl)-2-oxoethyl)-2-(2,6-dioxopiperidin-3-yl)-6,7-dihydropyrrolo[3,4-f]isoindole-1,3(2H,5H)-dione]	0.01 to 0.1
CCC(=C(c1ccc(O)cc1)c1ccc(N2CCC3(CC2)CN(C(=O)CN2Cc4cc5c(cc4C2)C(=O)N(C2CCC(=O)NC2=O)C5=O)C3)cc1)c1ccccc1 (stereo not shown) [E 242, 2-(2,6-dioxopiperidin-3-yl)-6-(2-(7-(4-(1-(4-hydroxyphenyl)-2-phenylbut-1-en-1-yl)phenyl)-2,7-diazaspiro[3.5]nonan-2-yl)-2-oxoethyl)-6,7-dihydropyrrolo[3,4-f]isoindole-1,3(2H,5H)-dione]	0.01 to 0.1
O=C1CCC(N2C(=O)c3cc4c(cc3C2=O)CN(CC2CCN(C(=O)C3CCN(c5ccc([C@@H]6c7ccc(O)cc7CC[C@@H]6c6ccccc6)cc5)CC3)CC2)C4)C(=O)N1 (mixture of isomers) [E 14, Rac-2-(2,6-dioxopiperidin-3-yl)-6-((1-(1-(4-((1R,2S)-6-hydroxy-2-phenyl-1,2,3,4-tetrahydronaphthalen-1-yl)phenyl)piperidine-4-carbonyl)piperidin-4-yl)methyl)-6,7-dihydropyrrolo[3,4-f]isoindole-1,3(2H,5H)-dione]	0.01 to 0.1
O=C1CCC(N2C(=O)c3cc4c(cc3C2=O)CN(C2CCN(C(=O)C3CCN(c5ccc([C@@H]6c7ccc(O)cc7CC[C@@H]6c6ccccc6)cc5)CC3)CC2)C4)C(=O)N1 (mixture of isomers) [E 13, Rac-2-(2,6-dioxopiperidin-3-yl)-6-(1-(1-(4-((1R,2S)-6-hydroxy-2-phenyl-1,2,3,4-tetrahydronaphthalen-1-yl)phenyl)piperidine-4-carbonyl)pi570 peridin-4-yl)-6,7-dihydropyrrolo[3,4-f]isoindole-1,3(2H,5H)-dione]	< 0.01
O=C1CCC(N2C(=O)c3cc4c(cc3C2=O)CN(C[C@H]2CC[C@H](N3CC(Nc5ccc([C@@H]6c7ccc(O)cc7CC[C@@H]6c6ccccc6)cc5)C3)CC2)C4)C(=O)N1 (stereo partly drawn) [E 374, 2-(2,6-dioxopiperidin-3-yl)-6-(((1R,4r)-4-(3-((4-((1R,2S)-6-hydroxy-2-phenyl-1,2,3,4-tetrahydronaphthalen-1-yl)phenyl)amino)azetidin-1-yl)cyclohexyl)methyl)-6,7-dihydropyrrolo[3,4-f]isoindole-1,3(2H,5H)-dione]	> 0.1
C[C@@H]1Cc2c([nH]c3ccccc23)[C@@H](c2c(F)cc(N3CCC4(CCN(C(=O)CN5Cc6cc7c(cc6C5)C(=O)N(C5CCC(=O)NC5=O)C7=O)CC4)C3)cc2F)N1CC(F)F (stereo partly drawn) [E 135, 6-(2-(2-(4-((1R,3R)-2-(2,2-difluoroethyl)-3-methyl-2,3,4,9-tetrahydro-1H-pyrido[3,4-b]indol-1-yl)-3,5-difluorophenyl)-2,8-diazaspiro[4.5]decan-8-yl)-2-oxoethyl)-2-(2,6-dioxopiperidin-3-yl)-6,7-dihydropyrrolo[3,4-f]isoindole-1,3(2H,5H)-dione]	< 0.01
C[C@@H]1CC2(CCN(c3ccc([C@@H]4c5ccc(O)cc5CC[C@@H]4c4ccc(F)cc4)cc3)CC2)CN1C(=O)CN1Cc2cc3c(cc2C1)C(=O)N(C1CCC(=O)NC1=O)C3=O (mixture of isomers) [E 145, Rac-2-(2,6-dioxopiperidin-3-yl)-6-(2-((R)-8-(4-((1R,2S)-2-(4-fluorophenyl)-6-hydroxy-1,2,3,4-tetrahydronaphthalen-1-yl)phenyl)-3-methyl-2,8-diazaspiro[4.5]decan-2-yl)-2-oxoethyl)-6,7-dihydropyrrolo[3,4-f]isoindole-1,3(2H,5H)-dione]	0.01 to 0.1
C[C@@H]1Cc2c([nH]c3ccccc23)[C@@H](c2c(F)cc(N3CCC(CN4CC5(CC(N6Cc7cc8c(cc7C6)C(=O)N(C6CCC(=O)NC6=O)C8=O)C5)C4)CC3)cc2F)N1CC(F)F (stereo partly drawn) [E 131, 6-(2-((1-(4-((1R,3R)-2-(2,2-difluoroethyl)-3-methyl-2,3,4,9-tetrahydro-1H-pyrido[3,4-b]indol-1-yl)-3,5-difluorophenyl)piperidin-4-yl)methyl)-2-azaspiro[3.3]heptan-6-yl)-2-(2,6-dioxopiperidin-3-yl)-6,7-dihydropyrrolo[3,4-f]isoindole-1,3(2H,5H)-dione]	< 0.01
C[C@@H]1Cc2cc(O)ccc2[C@@H](c2c(F)cc(N3CC4(CCN(CC(=O)N5Cc6cc7c(cc6C5)C(=O)N(C5CCC(=O)NC5=O)C7=O)CC4)C3)cc2F)N1CC(C)(F)F (stereo partly drawn) [E 25, 6-(2-(2-(4-((1S,3R)-2-(2,2-difluoropropyl)-6-hydroxy-3-methyl-1,2,3,4-tetrahydroisoquinolin-1-yl)-3,5-difluorophenyl)-2,7-diazaspiro[3.5]nonan-7-yl)acetyl)-2-(2,6-dioxopiperidin-3-yl)-6,7-dihydropyrrolo[3,4-f]isoindole-1,3(2H,5H)-dione]	> 0.1
C[C@@H]1Cc2c([nH]c3ccccc23)[C@@H](c2c(F)cc(C3CCC(C(=O)N4CC(CN5Cc6cc7c(cc6C5)C(=O)N(C5CCC(=O)NC5=O)C7=O)C4)CC3)cc2F)N1CC(F)F (stereo partly drawn) [E250, 6-((1-(4-(4-((1R,3R)-2-(2,2-difluoroethyl)-3-methyl-2,3,4,9-tetrahydro-1H-pyrido[3,4-b]indol-1-yl)-3,5-difluorophenyl)cyclohexane-1-carbonyl)azetidin-3-yl)methyl)-2-(2,6-dioxopiperidin-3-yl)-6,7-dihydropyrrolo[3,4-f]isoindole-1,3(2H,5H)-dione]	< 0.01
O=C1CCC(N2C(=O)c3cc4c(cc3C2=O)CCN(C(=O)CN2CC3(CCN(c5ccc([C@@H]6c7ccc(O)cc7CC[C@@H]6c6ccccc6)cc5)CC3)C2)CC4)C(=O)N1 (stereo partly drawn) [E 170, 2-(2,6-dioxopiperidin-3-yl)-7-(2-(7-(4-((1R,2S)-6-hydroxy-2-phenyl-1,2,3,4-tetrahydronaphthalen-1-yl)phenyl)-2,7-diazaspiro[3.5]nonan-2-yl)acetyl)-6,7,8,9-tetrahydroazepino[4,5-f]isoindole-1,3(2H,5H)-dione]	> 0.1
O=C1CCC(N2Cc3cc4c(cc3C2=O)CN(C2CCN(CC3CCN(c5ccc([C@@H]6c7ccc(O)cc7CC[C@@H]6c6ccccc6)cc5)CC3)CC2)C4)C(=O)N1 (mixture of isomers) [E 3, Rac-3-(6-(1-((1-(4-((1R,2S)-6-hydroxy-2-phenyl-1,2,3,4-tetrahydronaphthalen-1-yl)phenyl)piperidin-4-yl)methyl)piperidin-4-yl)-1-oxo-3,5,6,7-tetrahydropyrrolo[3,4-f]isoindol-2(1H)-yl)piperidine-2,6-dione]	< 0.01
CCC(=C(c1ccc(O)cc1)c1ccc(N2CCC3(CC2)CN(C(=O)CN2CCc4cc5c(cc4C2)C(=O)N(C2CCC(=O)NC2=O)C5=O)C3)cc1)c1ccccc1 (stereo not shown) [E 194, 2-(2,6-dioxopiperidin-3-yl)-6-(2-(7-(4-(1-(4-hydroxyphenyl)-2-phenylbut-1-en-1-yl)phenyl)-2,7-diazaspiro[3.5]nonan-2-yl)-2-oxoethyl)-5,6,7,8-tetrahydro-1H-pyrrolo[3,4-g]isoquinoline-1,3(2H)-dione]	0.01 to 0.1

Same assay, conditions: compounds 16 hours, Table A does not say whether T47D or MCF7, read-out: Potency (DC50)

SMILES	DC50 [µM]
C[C@@H]1Cc2cc(O)ccc2C(c2ccc(C3CCC4(CC3)CCN(C(=O)CN3Cc5cc6c(cc5C3)C(=O)N(C3CCC(=O)NC3=O)C6=O)CC4)cc2)N1CC(F)F (stereo partly drawn) [E 450, 6-(2-(9-(4-((3R)-2-(2,2-difluoroethyl)-6-hydroxy-3-methyl-1,2,3,4-tetrahydroisoquinolin-1-yl)phenyl)-3-azaspiro[5.5]undecan-3-yl)-2-oxoethyl)-2-(2,6-dioxopiperidin-3-yl)-6,7-dihydropyrrolo[3,4-f]isoindole-1,3(2H,5H)-dione]	0.01 to 0.1

— US20240190880A1 (THE REGENTS OF THE UNIVERSITY OF MICHIGAN, priority 2021, published 2024)
